Reference: PubChem BioAssay (NCI)
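Growth conditions: 96-well plates. Treatment: test compound, 48 hours, 5 concentrations. Analysis: linear interpolation between bracketing concentrations; unreached endpoints set to highest concentration. At the TGI there is no net growth.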

Tests used:
Test in all cases: NCI-60 cell line screen, 48 h
A549 NSCLC = tested on: A549 NSCLC
UO-31 renal = tested on: UO-31 renal
786-0 renal = tested on: 786-0 renal
MCF7 breast = tested on: MCF7 breast
NCI-H522 lung = tested on: NCI-H522 lung
KM12 colon = tested on: KM12 colon
HOP-92 NSCLC = tested on: HOP-92 NSCLC
HT29 colon = tested on: HT29 colon
LOX IMVI melanoma = tested on: LOX IMVI melanoma
OVCAR-4 ovarian = tested on: OVCAR-4 ovarian
OVCAR-8 ovarian = tested on: OVCAR-8 ovarian
SK-MEL-5 melanoma = tested on: SK-MEL-5 melanoma
TK-10 renal = tested on: TK-10 renal
IGROV1 ovarian = tested on: IGROV1 ovarian
SNB-75 CNS = tested on: SNB-75 CNS
RPMI-8226 leukemia = tested on: RPMI-8226 leukemia
T-47D breast = tested on: T-47D breast
HCC-2998 colon = tested on: HCC-2998 colon

Structure (SMILES) | TGI (A549 NSCLC) [µM] | TGI (UO-31 renal) [µM] | TGI (786-0 renal) [µM] | TGI (MCF7 breast) [µM] | TGI (NCI-H522 lung) [µM] | TGI (KM12 colon) [µM] | TGI (HOP-92 NSCLC) [µM] | TGI (HT29 colon) [µM] | TGI (LOX IMVI melanoma) [µM] | TGI (OVCAR-4 ovarian) [µM] | TGI (OVCAR-8 ovarian) [µM] | TGI (SK-MEL-5 melanoma) [µM] | TGI (TK-10 renal) [µM] | TGI (IGROV1 ovarian) [µM] | TGI (SNB-75 CNS) [µM] | TGI (RPMI-8226 leukemia) [µM] | TGI (T-47D breast) [µM] | TGI (HCC-2998 colon) [µM]
COc1ccc2nc3cc([N+](=O)[O-])ccc3c(NNc3ccc([N+](=O)[O-])cc3)c2c1 | > 100 | > 100 | > 100 | > 100 | > 100 | > 100 | 67.7 | > 63.9 | > 100 | > 100 | > 100 | 61.4 | > 24.2 | > 59 | > 100 | > 71.5 | > 100 | 69.4
Cc1occc1C(=S)Nc1ccc(Cl)c(C(=O)OCC(C)C)c1 | 42.4 | 33.2 | 33.5 | 33.3 | 29.2 | 27.5 | 34.1 | 26.3 | 28.6 | 39.2 | 30.7 | 29 | 33.5 | 34.5 | 29.4 | 75 | 34.3 | 35.3
COc1cccc(C2c3cc4c(cc3OC(NNC(N)=O)C2C)OCO4)c1O (stereo not drawn) | > 39.8 | > 75.3 | > 69.3 | > 100 | 10.9 | > 79.2 | 51.8 | > 23 | > 100 | > 100 | > 33.8 | 8.54 | > 75.5 | > 100 | > 69.4 | > 100 | > 100 | 35.4
O=C1C=CC(=O)c2c(O)c(NCCO)c(Cl)c(O)c21 | 3.78 | > 10 | > 10 | 3.94 | > 10 | > 10 | > 10 | 7.43 | 3 | 1.49 | > 10 | 2.75 | > 10 | 5.63 | > 6.54 | > 10 | > 7.77 | > 7.21
CCOc1cc(/C=N/c2nc3cc4sc(/N=C/c5ccc(O)c(OCC)c5)nc4cc3s2)ccc1O | > 100 | > 100 | > 100 | > 100 | > 100 | > 100 | > 100 | > 100 | > 100 | > 100 | > 100 | > 100 | > 100 | > 100 | > 100 | > 100 | > 100 | > 100
CC1=NN(c2cccc(Cl)c2)C2(C1=Cc1cccs1)C(Cl)C(=O)N2c1nc2ccccc2s1 (stereo not drawn) | 63.7 | 69.6 | 29.1 | 69.5 | 38.2 | > 100 | 52.7 | 46 | 42.1 | > 100 | 48.2 | 36.2 | 66.3 | > 100 | 86.3 | 43.6 | > 100 | 35.3
O=C(CCc1ccc(O)c(O)c1)NCCc1ccccc1 | > 100 | > 74.5 | > 100 | 35 | 43.4 | > 100 | > 100 | > 72.2 | > 100 | > 54.2 | > 100 | > 48.7 | > 100 | > 100 | > 100 | > 76.1 | > 100 | > 100
CC1(c2nc3ccccc3[nH]2)CCC(C#N)C(C)(C)O1 (stereo not drawn) | > 100 | > 100 | > 100 | > 100 | > 100 | > 100 | > 100 | > 100 | > 100 | > 100 | > 100 | > 100 | > 100 | > 100 | > 100 | > 100 | > 100 | > 100
CCOC(CN(C)C(=O)Nc1ccc(Cl)c(Cl)c1)OCC | > 10 | > 10 | > 10 | > 10 | > 10 | > 10 | > 10 | > 10 | > 10 | > 10 | > 10 | > 10 | > 10 | > 10 | > 10 | > 10 | > 10 | > 10
CCCC(=O)N(C)N=Nc1ccc(C(=O)OCC)cc1 | > 100 | > 100 | > 100 | > 100 | > 100 | > 100 | > 100 | > 100 | > 100 | > 100 | > 100 | > 100 | > 100 | > 100 | > 100 | > 100 | > 100 | > 100
Brc1c2c(c(Br)c3nsnc13)N=S=N2 | > 100 | 56.7 | 41.6 | > 65.6 | > 57.5 | > 100 | 44.8 | > 60.4 | 13.9 | > 55.7 | 79.7 | 42.5 | 47.3 | > 60.7 | 63.7 | 78.1 | > 66.6 | > 100
